Laboratory results reported in patent US8114854B2, “Crystalline forms of gemcitabine amide prodrug, compositions and use thereof” (Eli Lilly and Company, priority 2006, dated 2012).

Assays:
Female CD-1 mice = assay: 4-Day Mouse Screen (toxicology); format: in vivo; conditions: oral gavage once daily for 4 days, molar equivalent of 8-mg/kg gemcitabine
Experimental: To evaluate the toxicity produced by orally administered 1-(2,2-difluoro-2-deoxy-β-D-ribofuranosyl)-4-(2-propyl-1-oxopentyl)aminopyrimidin-2-one when administered daily to female […] mice for 4 days, the gastrointestinal toxicity profiles of 1-(2,2-difluoro-2-deoxy-β-D-ribofuranosyl)-4-(2-propyl-1-oxopentyl)aminopyrimidin-2-one is compared with the historical results for gastrointestinal toxicity when gemcitabine is administered orally at 8 mg/kg in a 4-day mouse study.
Female CD-1 mice 5-8 weeks of age are dosed with 1-(2,2-difluoro-2-deoxy-β-D-ribofuranosyl)-4-(2-propyl-1-oxopentyl)aminopyrimidin-2-one by oral gavage. A dose level is chosen to approximate a molar equivalent of 8-mg/kg gemcitabine. A dose volume of 10 mL/kg is used and doses are administered once daily on 4 consecutive days. Necropsy is performed approximately 5-8 hours following the 4th dose.
Clinical signs, clinical chemistry, gross pathology, and limited histopathology (ileum, jejunum, and liver) are evaluated.

[1] = Small Intestine Homogenate Assay (all species); format: in vitro ADME, CD-1 mice, beagle dogs, cynomolgus monkeys, and humans; conditions: 100 uM, SIH 2.5-5 mg/mL protein, pH 7.5
Experimental: (§1) Small Intestine Homogenate Assay
(§2) To determine the stability of 1-(2,2-difluoro-2-deoxy-β-D-ribofuranosyl)-4-(2-propyl-1-oxopentyl)aminopyrimidin-2-one to enzymatic hydrolysis in the intestine, crude homogenates of small intestinal epithelial cells are prepared from sections of the upper small intestine from CD-1 mice, beagle dogs, cynomolgus monkeys, and humans. Mouse and dog homogenates are prepared from freshly collected tissue, while monkey and human homogenates are prepared from previously frozen tissues. Cells are gently scraped from intestinal segments, pooled, and homogenized in 50 mM acetate buffer using Polytron (PT-10-85). Protein concentrations are determined by standard spectrophotometric techniques. The prepared homogenates are store at −70° C. before using.
(§3) The hydrolytic rates of 1-(2,2-difluoro-2-deoxy-β-D-ribofuranosyl)-4-(2-propyl-1-oxopentyl)aminopyrimidin-2-one in small intestinal homogenates (SIH) is determined by incubating a compound of formula I (100 uM) with SIH (2.5-5 mg/mL of total protein) in acetate at pH 7.5 for up to 6 hours. Concentrations of gemcitabine released via hydrolysis is determined by LC/MS analysis after the reaction is quenched with acetonitrile. […]

[2] = Liver S9 Hydrolysis Assay, monkey; format: in vitro ADME, cynomolgus monkey; conditions: monkey liver S9, 6 hour incubation
Experimental: (§4) Liver S9 Hydrolysis Assay
(§5) Hydrolysis of 1-(2,2-difluoro-2-deoxy-β-D-ribofuranosyl)-4-(2-propyl-1-oxopentyl)aminopyrimidin-2-one by liver enzymes is determined by liver hydrolysis assay. Liver homogenates are prepared from CD-1 mouse, beagle dog, cynomolgus monkey, and human livers. Liver tissues are cut into small pieces using scissors, then, homogenized in 50 mM acetate buffer using Polytron (PT-10-85) for 1 min. Post-mitochondrial (S9) fractions are prepared from each by ultracentrifugation at 9,000×g at 4° C. for 10 min. Mouse, dog and monkey liver S9 fractions are prepared from freshly collected tissues, while human liver S9 are prepared from previously frozen tissue. After centrifugation, the supernatant is collected and protein concentrations are determined by standard spectrophotometric techniques. The prepared S9 fractions are store at −70° C. before using.
(§6) The hydrolytic rates of 1-(2,2-difluoro-2-deoxy-β-D-ribofuranosyl)-4-(2-propyl-1-oxopentyl)aminopyrimidin-2-one in liver S9 is determined by incubating compound (10 uM) with S9 (2 mg/mL of total protein) in phosphate buffered saline at pH 8.0 for up to 6 hours. Concentrations of gemcitabine released via hydrolysis are determined by LC/MS analysis after the reaction is quenched with acetonitrile. […]

[3] = Small Intestine Homogenate Assay, monkey; format: in vitro ADME, cynomolgus monkeys; conditions: 6 hour incubation
Experimental: as §1, §2, §3

[4] = Liver S9 Hydrolysis Assay, human; format: in vitro ADME; conditions: human liver S9, 6 hour incubation
Experimental: as §4, §5, §6

Mouse Pharmacokinetics = format: in vivo, male CD-1 mice
Experimental: The pharmacokinetic profiles of gemcitabine and 1-(2,2-difluoro-2-deoxy-β-D-ribofuranosyl)-4-(2-propyl-1-oxopentyl)aminopyrimidin-2-one are assessed in male CD-1 mice following oral administration at doses selected to contain approximately 10 mg/kg of gemcitabine. Designated animals (n=3/time point/compound) are sacrificed at 0.08, 0.25, 0.5, 1, 2, and 6 hours after dosing, and systemic blood samples are collected into EDTA-treated tubes containing tetrahydrouridine (0.5 mM final concentration in blood) to inhibit further metabolism of gemcitabine. An additional 3 animals are sacrificed at 0.08 hours for collection of hepatic portal blood. Plasma is isolated by centrifugation and frozen prior to analysis. Plasma concentrations of gemcitabine and prodrugs are determined by LC/MS/MS analysis. Pharmacokinetic parameters are calculated using WinNonlin software (Pharsight Corp., Mountain View, Calif.). Pharmacokinetic parameters of each prodrug are compared to those determined from administration of oral gemcitabine hydrochloride in a similar study design.

[5] = Monkey Pharmacokinetics Assay; format: in vivo; conditions: administered intravenously to cynomolgus monkeys
Experimental: Monkey Pharmacokinetics Assay
The pharmacokinetic profiles of gemcitabine and a 1-(2,2-difluoro-2-deoxy-β-D-ribofuranosyl)-4-(2-propyl-1-oxopentyl)aminopyrimidin-2-one are assessed in cynomolgus monkeys following oral and intravenous administration in a crossover design. Compounds are administered at doses selected to contain approximately 10 mg/kg of gemcitabine. Blood samples are collected into EDTA-treated tubes containing tetrahydrouridine (0.5 mM final concentration in blood) at designated intervals for up to 48 hours. Animals are pretreated with ranitidine (intravenous, 5 mg/kg) in the oral dosing periods. Plasma is isolated by centrifugation and frozen prior to analysis. Plasma concentrations of gemcitabine and 1-(2,2-difluoro-2-deoxy-β-D-ribofuranosyl)-4-(2-propyl-1-oxopentyl)aminopyrimidin-2-one are determined by LC/MS/MS analysis. Pharmacokinetic parameters are determined using WinNonlin software (Pharsight Corp., Mountain View, Calif.).

[6] = tested on: Male and female CD-1 mice; assay: 14 Day Mouse Study (toxicology); format: in vivo
Experimental: A 14-Day Mouse Study is conducted to evaluate whether 1-(2,2-difluoro-2-deoxy-β-D-ribofuranosyl)-4-(2-propyl-1-oxopentyl)aminopyrimidin-2-one produces adverse effects in mice following 14 days of oral gavage dosing and to determine the plasma concentrations of 1-(2,2-difluoro-2-deoxy-β-D-ribofuranosyl)-4-(2-propyl-1-oxopentyl)aminopyrimidin-2-one and its metabolites gemcitabine HCl and deoxydifluorouridine after 1 or 14 doses.
Male and female CD-1 mice 9-12 weeks of age are dosed with 1-(2,2-difluoro-2-deoxy-β-D-ribofuranosyl)-4-(2-propyl-1-oxopentyl)aminopyrimidin-2-one drug by oral gavage. A range of doses is selected in an effort to determine a maximum tolerated dose and dose limiting toxicity. A dose volume of 10 mL/kg is used and doses are administered once daily.
Clinical signs, body weight, food consumption, hematology, clinical chemistry, plasma concentrations of 1-(2,2-difluoro-2-deoxy-β-D-ribofuranosyl)-4-(2-propyl-1-oxopentyl)aminopyrimidin-2-one and metabolites gemcitabine HCl and deoxydifluorouridine, and pathology (including gross pathology, organ weights, and histopathology) are evaluated.

[7] = tested on: Male and female beagle dogs; assay: 7-Day Dog Study (toxicology); format: in vivo; conditions: oral via capsule once daily for 7 days
Experimental: To evaluate the toxicity profile of 1-(2,2-difluoro-2-deoxy-β-D-ribofuranosyl)-4-(2-propyl-1-oxopentyl)aminopyrimidin-2-one when administered to Beagle dogs for 7 days, and to determine the plasma concentrations of 1-(2,2-difluoro-2-deoxy-β-D-ribofuranosyl)-4-(2-propyl-1-oxopentyl)aminopyrimidin-2-one and metabolites gemcitabine HCl and deoxydifluorouridine after 1 or 7 doses, a 7-day dog study is conducted.
Male and female beagle dogs 6-48 months of age are dosed orally via capsule with 1-(2,2-difluoro-2-deoxy-β-D-ribofuranosyl)-4-(2-propyl-1-oxopentyl)aminopyrimidin-2-one. A range of doses is selected in an effort to determine a maximum tolerated dose and dose limiting toxicity. A dose volume of 1 mL/kg is used and doses are administered once daily.
Clinical signs, body weight, food consumption, body temperature, hematology (including coagulation), clinical chemistry, urinalysis, plasma concentrations of 1-(2,2-difluoro-2-deoxy-β-D-ribofuranosyl)-4-(2-propyl-1-oxopentyl)aminopyrimidin-2-one and its metabolites gemcitabine HCl and deoxydifluorouridine, and pathology (including gross pathology, organ weights, and histopathology) were evaluated.

[8] = tested on: HCT-116 colon tumor cells; assay: In Vivo Assay, HCT-116 colon tumor xenograft; conditions: oral gavage
Experimental: HCT-116 colon tumor cells are grown in vitro under standard tissue culture conditions, harvested, washed, and 5×10^6 cells (1:1 suspension in Matrigel, Collaborative Biomedical Products, Inc) are injected subcutaneously in the rear flank of female nude mice (Charles River, CD1 nu/nu, 24-27 g, irradiated with 450 Rads within 24 h of implantation). Tumors are allowed to grow to ˜100 mm^3 before initiation of therapy. Vehicle control, 1-(2,2-difluoro-2-deoxy-β-D-ribofuranosyl)-4-(2-propyl-1-oxopentyl)aminopyrimidin-2-one or gemcitabine-HCl at various dose levels are administered to the mice by oral gavage (10 ml/kg volume) at the times indicated in the individual experiments. Compounds are administered either daily for fourteen days, every other day for a total of seven doses, or every third day for a total of four doses. […] Tumor size is determined by caliper measurements and tumor volume (mm^3) is estimated from the formula l×w^2×0.536, where l is the larger and w is the smaller of perpendicular diameters. All data (tumor measurements and animal weights) are captured twice-weekly beginning with the start of therapy and analyzed using a computer based tumor measurement system.

[9] = Small Intestine Homogenate Assay, human; format: in vitro ADME, humans; conditions: 6 hour incubation
Experimental: as §1, §2, §3

[10] = Liver S9 Hydrolysis Assay (all species); format: in vitro ADME, CD-1 mouse, beagle dog, cynomolgus monkey, and human; conditions: all species described; 10 uM, S9 2 mg/mL protein, pH 8.0
Experimental: as §4, §5, §6

[11] = pH Chemical Stability Assay; format: physicochemical; conditions: pH range 1 to 8, after four hours, 40° C., 100 mcg/mL in buffers
Experimental: pH Chemical Stability Assay
The pH chemical stability is assessed using a semi-automated HPLC technique. Samples of 1-(2,2-difluoro-2-deoxy-β-D-ribofuranosyl)-4-(2-propyl-1-oxopentyl)aminopyrimidin-2-one are prepared at 100 mcg/mL in five buffers representing the pH range throughout the gastrointestinal tract (pH1-pH8). Samples are loaded onto an HPLC autosampler incubated at 40° C. Samples are repeatedly injected on the HPLC at hourly intervals for up to 24 hours with an HPLC column that separates a compound of formula I from gemcitabine. The peak area of 1-(2,2-difluoro-2-deoxy-β-D-ribofuranosyl)-4-(2-propyl-1-oxopentyl)aminopyrimidin-2-one is monitored by UV detection over time and are compared to initial peak areas to determine stability.

mice [12] = conditions: comparable exposures via intravenous dosing; cited from earlier work
[13] = result of first pass metabolism; cited from earlier work
mice [14] = conditions: single oral (gavage) dose of 167, 333, or 500 mg/kg; cited from earlier work

| Compound | severity of atrophic intestinal changes or enteropathy versus gemcitabine HCl (Female CD-1 mice) | rate of hydrolysis in small intestine homogenate [1] | total compound converted to gemcitabine [2] | total compound converted to gemcitabine [3] | total compound converted to gemcitabine [4] | concentrations of intact prodrug in hepatic portal plasma (Mouse Pharmacokinetics; 0.08 hours after oral dosing, CD-1 mice) | hydrolysis in vivo to release gemcitabine (Mouse Pharmacokinetics; administered orally to CD-1 mice, dose containing approximately 10 mg/kg of gemcitabine) | plasma exposure to gemcitabine compared to direct oral administration of gemcitabine hydrochloride (Mouse Pharmacokinetics; oral, CD-1 mice) | hydrolysis in vivo to release gemcitabine [5] | systemic gemcitabine exposure from the prodrug versus gemcitabine HCl on a molar equivalent basis ([6]; 14-day oral gavage study) | enteropathy versus gemcitabine HCl on a molar equivalent basis ([6]; 14 days of oral gavage dosing) | hematotoxicity and other toxicities, including GI toxicity [7] | overall toxicity versus equivalent amount of gemcitabine-HCl ([8]; HCT-116 tumor-bearing nude mice) | antitumor efficacy versus equivalent dose of gemcitabine-HCl ([8]; HCT-116 tumors in nude mice) | total compound converted to gemcitabine [9] | hydrolysis in liver S9 [10] | degraded to gemcitabine [11] | death or gastrointestinal toxicity (mice [12]) | oral bioavailability [13] | adverse dose-limiting intestinal lesions (mice [14]) |
| --- | --- | --- | --- | --- | --- | --- | --- | --- | --- | --- | --- | --- | --- | --- | --- | --- | --- | --- | --- | --- |
| CCCC(CCC)C(=O)Nc1ccn([C@@H]2O[C@H](CO)[C@@H](O)C2(F)F)c(=O)n1 [1-(2,2-difluoro-2-deoxy-β-D-ribofuranosyl)-4-(2-propyl-1-oxopentyl)aminopyrimidin-2-one] | significant reduction | slow rate of hydrolysis | approximately 35% | less than 3% | approximately 35% | relatively high concentrations | extensively hydrolyzed | increased | extensively hydrolyzed | approximately twice | less enteropathy | consistent with what has been previously described for parenteral gemcitabine | less overall toxicity | comparable | less than 3% | hydrolyzed | Less than 25% |  |  |  |
| Nc1ccn([C@@H]2O[C@H](CO)[C@@H](O)C2(F)F)c(=O)n1 [gemcitabine, 2′,2′-difluoro-2′-deoxycytidine] |  |  |  |  |  |  |  |  |  |  |  |  |  |  |  |  |  | did not result in death or gastrointestinal toxicity | poor oral bioavailability | moderate-to-marked loss of mucosal epithelium (atrophic enteropathy) |
